Data taken from patent US20110009437A1, “CARBOXAMIDE-HETEROARYL DERIVATIVES FOR THE TREATMENT OF DIABETES” (MERCK PATENT GESELLSCHAFT MIT BESCHRANKTER HAFTUNG, priority 2008, published 2011).

Target: T1, Glucokinase (Homo sapiens, UniProt P35557)
T1 sequence (P35557 1-465): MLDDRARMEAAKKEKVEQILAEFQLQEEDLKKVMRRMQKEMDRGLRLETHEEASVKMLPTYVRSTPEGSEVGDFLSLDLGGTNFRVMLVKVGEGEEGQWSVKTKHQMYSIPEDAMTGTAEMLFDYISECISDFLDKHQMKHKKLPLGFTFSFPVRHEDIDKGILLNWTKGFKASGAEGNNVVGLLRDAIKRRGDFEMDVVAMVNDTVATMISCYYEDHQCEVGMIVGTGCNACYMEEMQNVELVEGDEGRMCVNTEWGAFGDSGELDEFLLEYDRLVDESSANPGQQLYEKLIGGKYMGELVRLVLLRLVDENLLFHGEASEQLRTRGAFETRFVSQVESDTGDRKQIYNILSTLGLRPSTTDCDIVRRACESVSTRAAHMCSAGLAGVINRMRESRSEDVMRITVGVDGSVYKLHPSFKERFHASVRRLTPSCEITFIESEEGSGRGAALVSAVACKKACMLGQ
Assay: Glucokinase Activation Screening Assay (coupled enzyme assay with PK/LDH)
Format: biochemical
Settings: human GK enzyme
Experimental: GK activity (human or rat enzyme) is measured by a coupled enzyme assay using pyruvate kinase (PK) and lactate dehydrogenase (LDH) as coupling enzymes. GK activity is calculated from the decline in NADH monitored photometrically with a microtiter plate (MTP) reader at 340 nm. For screening purposes, the GK assay is routinely run in a 384-MTP format, in a total volume of 33 μl/well. 10 μl of the ATP-regeneration solution (in HEPES-buffer*, pH 7.0, 6.73 U/ml pyruvate kinase, 6.8 U/ml lactate dehydrogenase) and 10 μl of the glucokinase-/glucose solution (15 μg/ml, 6.6 mM glucose in HEPES-buffer*, pH 7.0; the concentration of the glucose stock-solution was 660 mM in Millipore H2O) were mixed together with […] of a 10% DMSO solution (in HEPES-buffer*, pH 7.0) containing 3.3-fold the amounts of the compounds to achieve final compound concentrations in the range between 1 nM to 30 μM (sometimes 300 μM) in the assay solution (s. below). The solutions were mixed for 5 sec, and after a centrifugation at 243×g for 5 min, the solutions were preincubated for 25 min at room temperature.
The reaction was started by the addition of 10 μl of the NADH-/ATP-solution (4.29 mM NADH, 4.95 mM ATP, in HEPES-buffer*). The MTP was shaken for 5 sec., and then, the absorbance at 340 nm was monitored continuously in a MTP-reader (TECAN Spectro fluor plus) for the next 27 min (with a MTP-cycling time of 199 sec.). The final concentrations of the various components were as follows: 49.5 mM Hepes, pH 7.0, 1.49 mM PEP,1,3 mM NADH, 49.5 mM KCl, 4.96 mM MgCl2, 1.5 mM Mg-ATP, 1.98 mM DTT, 2.04 U/ml pyruvate kinase, 2.06 U/ml lactate-dehydrogenase, 0.91% DMSO, 0.15 μg/well glucokinase, and test compounds in the range between 1 nM and […] The change in the optical density (ΔOD340 nm) in the presence of the compound was expressed relative to the ΔOD340 nm, ctrl of the control incubation (in the presence of 2 mM glucose and 0.91% DMSO), taking into account the optical density of the blank sample (incubation in the absence of 2 mM glucose). For the determination of the half maximal effective concentration (EC50), the %-Ctrl-values were plotted in a semi-logarithmic graph against the conc. of the compound of interest. The data points were fitted to a sigmoid curve function (f(x)=((%-Ctrlmax−%-Ctrlmin)/(1−(EC50/x**^n(Hill)))+%-Ctrlmin)) by a non-linear regression analysis.
*Hepes-buffer (50 mM Hepes, pH 7.0, 5 mM MgCl2, 50 mM KCl, 1.5 mM PEP, 0.1% BSA). DTT was added to the Hepes-buffer from a 200× stock solution (in Millipore H2O) freshly each day. The final concentration of DTT in the Hepes-buffer is 2 mM.

Row | SMILES | fold activation (human) [fold]
1 | CN(C)c1cc(C(=O)Nc2ccn(Cc3cccnc3)n2)cc(Oc2ccccc2)n1 [B2, 2-Dimethylamino-6-phenoxy-N-(1-pyridin-3-ylmethyl-1H-pyrazol-3-yl)-isonicotinamide] | 3.3
2 | COCCN(C)c1cc(C(=O)Nc2ccn(Cc3cccnc3)n2)cc(Oc2ccccc2)n1 [B4, 2-[(2-Methoxy-ethyl)-methyl-amino]-6-phenoxy-N-(1-pyridin-3-ylmethyl-1H-pyrazol-3-yl)-isonicotinamide] | 1.8
3 | Cn1ccc(NC(=O)c2cc(Cl)nc(Oc3ccccc3)c2)n1 [B5, 2-Chloro-N-(1-methyl-1H-pyrazol-3-yl)-6-phenoxy-isonicotinamide] | 1.3
4 | COCCN(C)c1cc(C(=O)Nc2ccn(C)n2)cc(Oc2ccccc2)n1 [B6, 2-[(2-Methoxy-ethyl)-methyl-amino]-N-(1-methyl-1H-pyrazol-3-yl)-6-phenoxy-isonicotinamide] | 3.4
5 | COCC(C)Oc1cc(OC(C)COC)nc(C(=O)Nc2ccn(C)n2)n1 (stereo not drawn) [B7, 4,6-Bis-(2-methoxy-1-methyl-ethoxy)-pyrimidine-2-carboxylic acid (1-methyl-1H-pyrazol-3-yl)-amide] | 1.3
6 | CN(Cc1ccccc1)c1cc(C(=O)Nc2ccn(C)n2)cc(Oc2ccccc2)n1 [B8, 2-(Benzyl-methyl-amino)-N-(1-methyl-1H-pyrazol-3-yl)-6-phenoxy-isonicotinamide] | 1.4
